Reference: US20210186905A1, “ENHANCING T-CELL FUNCTION AND TREATING A T-CELL DYSFUNCTIONAL DISORDER WITH A COMBINATION OF AN LSD INHIBITOR AND A PD-1 BINDING ANTAGONIST” (EpiAxis Therapeutic Pty Ltd, priority 2017, published 2021)
Counter-ions that a name gives are not always drawn.

Assays:
[1] = test system: T-cell activation and exhaustion genes; assay: Nanostring transcript analysis of CD8+ T-cells from 4T1 metastatic mouse model; format: in vivo
Method: FIG. 5 is a graphical representation showing that dual epigenetic-immunotherapy re-educates and re-programs the T-cell repertoire. A. Cells stimulated with PMA/ionomycin for 4 hours in the presence of Brefeldin A. Cells were surfaced stained with CD45, CD3, CD4, CD8, CD44, CD62L (for naïve, effector and central memory), CD25 and FoxP3 (for Tregs) and analyzed via Flow cytometry. A Mann-Whitney non-parametric t-test was used to compare control vs other groups (*p<0.05, n=2-5). […] Representative images for each dataset are shown. TNFI values for EOMES, TBET and Ki67 measured using Image) to select the nucleus minus background. Graphs represent the % change of expression relative to control group for CD8^+ T-cells. (n>20 individual cells, Group A=Control, Group C: PD1 (10 mg/kg), Group D: Phenelzine (40 mg/kg), Group F: PD1+Phenelzine). C. Cells stimulated with PMA/ionomycin for 4 hours in the presence of Brefeldin A. Cell were surfaced stained with CD45, CD3, CD4, CD8 and intracellular staining of IFN-γ, IL-2 and TNF-α in the presence of Brefeldin A and analyzed via flow cytometry. A Mann-Whitney non-parametric t-test was used to compare control vs other groups (*p<0.05, **p<0.008; n=2-5). […] Representative images for each dataset are shown. TNFI values for TNFα and IFNγ measured using ImageJ to select the nucleus minus background. […]

LSD1 and EOMES = target: T1, LSD1 and EOMES (Mus musculus, UniProt Q6ZQ88); assay: Immunofluorescence co-expression and co-localization of LSD1 and EOMES in CD8+ T-cells; format: in vivo
T1 construct: CD8^+ T-cells isolated from the 4T1 metastatic xenograft mouse model; endogenous in cells; host or cells: CD8+ T-cells isolated from the tumour micro-environment of treated 4T1 mice
Method: FIG. 6 is a graphical and photographic representation depicting nuclear LSD1 complexes with EOMES in exhausted T-cell signatures. A. Nanostring transcript analysis was performed on isolated CD8^+ T-cells isolated from a 4T1 metastatic cancer mouse model treated with either Group A=Control, Group C: PD1 (10 mg/kg), Group D: Phenelzine (40 mg/kg), or Group F: PD1+Phenelzine. […] B. Immunofluorescence microscopy was performed on CD8^+ T-cells fixed and probed with primary anti-LSD1, anti-EOMES and anti-CD8 antibodies and DAPI. Representative images for each dataset are shown. […] C. […] Plot-profiles were plotted with the use of ImageJ software measuring a series of fluorescent intensities along a line spanning the nucleus. The pattern of the two plots can give an insight into the nature of the relationship between the two fluorochromes. Imagej software with automatic thresholding and manual selection ? for nucleus of cells was used to calculate the Pearson's co ? (PCC) for each pair of antibodies. The PCC Values range from −1=inverse of co-localization, 0=no co-localization, +1=perfect co-localization.
To unravel this role, the present inventors examined the co-expression of LSD1 and EOMES (an exhaustion marker) in CD8^+ T-cells isolated from the 4T1 metastatic xenograft mouse model.
This negative co-localization was unaffected by treatment with PD1 or LSD1 inhibitors (FIG. 7).
A total of 2×10^5 cells were injected per mouse into mammary gland in 50 μL of phosphate buffered saline (PBS). Treatments were started on mice after 15 days post-inoculation of 4T1 cells. […] Tumors were measured using calipers and the tumor volumes (mm3) were calculated using the formula (length×width2)/2. ? arvested cells from primary tumors where then cytospun ? -treated with poly-1-lysine and fixed then stored in PBS for IFA Microscopy Analysis. […] Digital images were analysed using ImageJ software (ImageJ, NIH, Bethesda, Md., USA) to determine the either the Total Nuclear Fluorescent Intensity (TNFI), the Total Cytoplasmic Fluorescent Intensity (TCFI) or total Fluorescent Intensity (TFI).

LSD1 = LSD1 (Homo sapiens, UniProt O60341); details: MDA-MB-231; TNFI of LSD1p and H3k4me2
Method: (§1) A. MDA-MB-231 breast cancer cell line was treated with increasing doses of phenelzine sulfate (phenelzine). Immunofluorescence microscopy was performed on cells fixed and probed with primary anti-LSD1s111p and anti-H3k4me2 and DAPI. Representative images for each dataset are shown. Graph represents the TNFI values for LSD1p and H3k4me2 measured using ImageJ to select the nucleus minus background (n>20 individual cells). B. The effect of phenelzine sulfate on cell proliferation of MDA-MB-231 cells was analyzed using the WST-1 proliferation assay

[2] = test system: MDA-MB-231 breast cancer cell line
Method: as §1

EOMES expression (LSD1 and EOMES; CD8+ T-cells, nuclear TNFI): marked inhibition
LSD1 expression (LSD1 and EOMES; CD8+ T-cells, nuclear TNFI): marked inhibition
LSD1/EOMES nuclear protein complex (co-localization, plot-profiles and PCC) (LSD1 and EOMES; nucleus of exhausted CD8+ T-cells): markedly inhibited
nuclear axis of LSD1, as measured by H3k4me2 de-methylation (LSD1): inhibited
SMILES: NNCCc1ccccc1 (racemic) [phenelzine sulfate, (±)-2-phenylethylhydrazine]
exhaustive signature genes such as CTLA4 and LAG3 [1]: inhibited
proliferation of MDA-MB-231, as measured by the WST-1 assay [2]: inhibiting the proliferation
